Experimental data as given in PubChem BioAssay (NCI).
Values joined by “and” are separate entries in the source; they are usually repeats but may differ in a detail not shown here. Identical values can stand only once.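 Each compound was tested at five concentrations against cells in 96-well plates for 48 hours. At the GI50, growth is halved. TGI is the concentration that stops growth completely.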

Columns and labels:
Test in all cases: NCI tumour cell line growth inhibition, 48 h
[1] = tested on: MALME-3M melanoma
[2] = tested on: A549 NSCLC
[3] = tested on: HT29 colon
[4] = tested on: RXF 393 renal
[5] = tested on: M14 melanoma
[6] = tested on: SN12C renal
[7] = tested on: OVCAR-4 ovarian
[8] = tested on: UACC-62 melanoma
[9] = tested on: DMS 273 small cell lung
[10] = tested on: NCI-H226 lung
[11] = tested on: UO-31 renal
[12] = tested on: OVCAR-8 ovarian
[13] = tested on: LOX IMVI melanoma
[14] = tested on: CCRF-CEM leukemia
[15] = tested on: SF-295 CNS
[16] = tested on: SW-620 colon
[17] = tested on: SK-OV-3 ovarian
[18] = tested on: NCI-H460 lung
[19] = tested on: RXF-631 renal
[20] = tested on: U251 CNS
[21] = tested on: KM20L2 colon
[22] = tested on: A498 renal
[23] = tested on: HL-60(TB) leukemia
[24] = tested on: DLD-1 colon
[25] = tested on: SR leukemia
[26] = tested on: SNB-19 CNS
[27] = tested on: KM12 colon
[28] = tested on: NCI-H522 lung
[29] = tested on: HOP-92 NSCLC
[30] = tested on: COLO 205 colon
[31] = tested on: HCC-2998 colon
[32] = tested on: RPMI-8226 leukemia
[33] = tested on: HCT-116 colon
[34] = tested on: CAKI-1 renal
[35] = tested on: M19-MEL melanoma
[36] = tested on: LXFL 529 NSCLC
[37] = tested on: SNB-75 CNS
[38] = tested on: NCI-H23 lung
[39] = tested on: 786-0 renal
[40] = tested on: ACHN renal
[41] = tested on: EKVX NSCLC
[42] = tested on: TK-10 renal
[43] = tested on: XF 498 CNS
[44] = tested on: HOP-18 NSCLC
[45] = tested on: OVCAR-3 ovarian
[46] = tested on: SF-268 CNS
[47] = tested on: HOP-62 NSCLC
[48] = tested on: HCT-15 colon
[49] = tested on: SNB-78 CNS
[50] = tested on: MOLT-4 leukemia
[51] = tested on: UACC-257 melanoma
[52] = tested on: DMS 114 small cell lung
[53] = tested on: IGROV1 ovarian
[54] = tested on: OVCAR-5 ovarian
[55] = tested on: K-562 leukemia
[56] = tested on: SK-MEL-28 melanoma
[57] = tested on: SK-MEL-5 melanoma
[58] = tested on: MDA-MB-435
[59] = tested on: P388/ADR leukemia
[60] = tested on: T-47D breast
[61] = tested on: PC-3 prostate
[62] = tested on: SN12K1 renal
[63] = tested on: DU-145 prostate
[64] = tested on: NCI/ADR-RES ovarian
[65] = tested on: BT-549 breast
[66] = tested on: MCF7 breast
[67] = tested on: SF-539 CNS
[68] = tested on: SK-MEL-2 melanoma
[69] = tested on: P388 leukemia
[70] = tested on: MDA-N
[71] = tested on: HS 578T breast
[72] = tested on: MDA-MB-231 breast

Question: How did the TGI [1] turn out when `COC(=O)C(=O)C(C(=O)C(=O)Nc1ccc([N+](=O)[O-])cc1[N+](=O)[O-])c1nc2ccc([N+](=O)[O-])cc2[nH]c1=O` (stereo not given) was run?
Answer: Its TGI is greater than 100 µM.

Question: What about the TGI [2] of the same compound?
Answer: Its TGI is greater than 100 µM.

Question: What about the TGI [3] of the same compound?
Answer: Its TGI is greater than 100 µM.

Question: And the TGI [4]?
Answer: Its TGI is greater than 100 µM.

Question: What about the TGI [5] of the same compound?
Answer: Its TGI is greater than 100 µM.

Question: What about the TGI [6] of the same compound?
Answer: The TGI was greater than 100 µM.

Question: What about the TGI [7] of the same compound?
Answer: The TGI was greater than 100 µM.

Question: What about the TGI [8] of the same compound?
Answer: Its TGI is greater than 100 µM.

Question: What about the TGI [9] of the same compound?
Answer: Its TGI is greater than 100 µM.

Question: What about the TGI [10] of the same compound?
Answer: Its TGI is greater than 100 µM.

Question: What about the TGI [11] of the same compound?
Answer: The TGI was greater than 100 µM.

Question: And the TGI [12]?
Answer: Its TGI is greater than 100 µM.

Question: What about the TGI [13] of the same compound?
Answer: Its TGI is greater than 100 µM.

Question: What about the TGI [14] of the same compound?
Answer: Its TGI is greater than 100 µM.

Question: What about the TGI [15] of the same compound?
Answer: Its TGI is greater than 100 µM.

Question: What about the TGI [16] of the same compound?
Answer: Its TGI is greater than 100 µM.

Question: What about the TGI [17] of the same compound?
Answer: The TGI was greater than 100 µM.

Question: What about the TGI [18] of the same compound?
Answer: The TGI was greater than 100 µM.

Question: What about the TGI [19] of the same compound?
Answer: Its TGI is greater than 100 µM.

Question: And the TGI [20]?
Answer: The TGI was greater than 100 µM.

Question: And the TGI [21]?
Answer: The TGI was greater than 100 µM.

Question: And the TGI [22]?
Answer: Its TGI is greater than 100 µM.

Question: What about the TGI [23] of the same compound?
Answer: The TGI was greater than 100 µM.

Question: And the TGI [24]?
Answer: Its TGI is greater than 100 µM.

Question: What about the TGI [25] of the same compound?
Answer: The TGI was greater than 100 µM.

Question: And the TGI [26]?
Answer: Its TGI is greater than 100 µM.

Question: What about the TGI [27] of the same compound?
Answer: Its TGI is greater than 100 µM.

Question: What about the TGI [28] of the same compound?
Answer: The TGI was greater than 100 µM.

Question: What about the TGI [29] of the same compound?
Answer: Its TGI is greater than 100 µM.

Question: What about the TGI [30] of the same compound?
Answer: Its TGI is greater than 100 µM.

Question: What about the TGI [31] of the same compound?
Answer: Its TGI is greater than 100 µM.

Question: What about the TGI [32] of the same compound?
Answer: The TGI was greater than 100 µM.

Question: And the TGI [33]?
Answer: Its TGI is greater than 100 µM.

Question: What about the TGI [34] of the same compound?
Answer: Its TGI is greater than 100 µM.

Question: What about the TGI [35] of the same compound?
Answer: The TGI was greater than 100 µM.

Question: What about the TGI [36] of the same compound?
Answer: Its TGI is greater than 100 µM.

Question: What about the TGI [37] of the same compound?
Answer: The TGI was 84.9 µM.

Question: What about the TGI [38] of the same compound?
Answer: The TGI was greater than 100 µM.

Question: What about the TGI [39] of the same compound?
Answer: The TGI was greater than 100 µM.

Question: What about the TGI [40] of the same compound?
Answer: The TGI was greater than 100 µM.

Question: And the TGI [41]?
Answer: The TGI was greater than 100 µM.

Question: What about the TGI [42] of the same compound?
Answer: The TGI was greater than 100 µM.

Question: What about the TGI [43] of the same compound?
Answer: The TGI was greater than 100 µM.

Question: And the TGI [44]?
Answer: Its TGI is greater than 100 µM.

Question: What about the TGI [45] of the same compound?
Answer: Its TGI is greater than 100 µM.

Question: What about the TGI [46] of the same compound?
Answer: The TGI was greater than 100 µM.

Question: And the TGI [47]?
Answer: Its TGI is greater than 100 µM.

Question: And the TGI [48]?
Answer: Its TGI is greater than 100 µM.

Question: And the TGI [49]?
Answer: The TGI was greater than 100 µM.

Question: What about the TGI [50] of the same compound?
Answer: Its TGI is greater than 100 µM.

Question: And the TGI [51]?
Answer: Its TGI is greater than 100 µM.

Question: And the TGI [52]?
Answer: Its TGI is greater than 100 µM.

Question: What about the TGI [53] of the same compound?
Answer: The TGI was greater than 100 µM.

Question: And the TGI [54]?
Answer: Its TGI is greater than 100 µM.

Question: What about the TGI [55] of the same compound?
Answer: The TGI was greater than 100 µM.

Question: Which results are given for `COC(=O)C1C(O)C(C)C(O)C(C)/C=C\C=C(C)C(=O)Nc2c(C)c(OC(C)=O)c3c(c2O)C(=O)C(C)=C2OCOC(=C23)C(C)=CC(C)(O)C(O)C(C)C1O` (stereo not given)?
Answer: TGI [1]: > 100 µM; GI50 [56]: 21.7 µM; TGI [56]: 44.7 µM and > 100 µM; TGI [57]: 74.5 µM and > 100 µM; TGI [2]: > 100 µM; TGI [3]: 40.2 µM and > 100 µM; TGI [58]: > 100 µM; GI50 [4]: 20.9 µM and > 100 µM; TGI [4]: 51.9 µM and > 100 µM; TGI [5]: > 100 µM; TGI [59]: > 58.5 µM; GI50 [6]: 49 µM and > 100 µM; TGI [6]: > 100 µM; TGI [60]: > 100 µM; GI50 [7]: > 66.3 µM and 14.6 µM; TGI [7]: > 100 µM; GI50 [8]: 17 µM and > 100 µM; TGI [8]: 37.7 µM and > 100 µM; TGI [9]: > 75 µM; TGI [61]: > 100 µM; TGI [10]: > 100 µM; TGI [11]: > 100 µM; GI50 [12]: 23.6 µM; TGI [12]: 47 µM and > 100 µM; GI50 [13]: 17.9 µM and 41.3 µM; TGI [13]: 41 µM and > 100 µM; GI50 [14]: 18.9 µM and 54.7 µM; TGI [14]: 50.9 µM and > 100 µM; TGI [62]: > 63.3 µM; TGI [15]: > 100 µM; GI50 [16]: 20.1 µM; TGI [16]: 39.6 µM and > 100 µM; TGI [17]: > 100 µM; GI50 [18]: 20.5 µM and > 100 µM; TGI [18]: > 100 µM; TGI [20]: > 100 µM; TGI [21]: > 72.8 µM; TGI [63]: > 100 µM; TGI [22]: > 75 µM; TGI [23]: 42.2 µM and > 100 µM; TGI [24]: 31.4 µM; TGI [25]: > 100 µM; TGI [64]: > 100 µM; TGI [65]: > 100 µM; TGI [26]: > 100 µM; GI50 [27]: 25.1 µM and > 100 µM; TGI [27]: > 100 µM; GI50 [28]: 23.4 µM and 74.2 µM; TGI [28]: > 100 µM; TGI [29]: > 100 µM; TGI [30]: 36.3 µM and 58.6 µM; GI50 [31]: > 100 µM; TGI [31]: > 100 µM; GI50 [32]: 15.9 µM and 64.3 µM; TGI [32]: 41.3 µM and > 100 µM; GI50 [33]: 20.3 µM; TGI [33]: 49.6 µM and > 100 µM; TGI [66]: 51.1 µM and > 100 µM; TGI [67]: 74.3 µM and > 100 µM; TGI [68]: 36.2 µM and > 100 µM; TGI [34]: > 62.2 µM; GI50 [37]: 35.3 µM and 5.07 µM; TGI [37]: > 100 µM; GI50 [38]: 32.6 µM and > 100 µM; TGI [38]: 58.9 µM and > 100 µM; TGI [39]: > 100 µM; TGI [40]: > 100 µM; TGI [69]: 47.1 µM; GI50 [41]: 48 µM and > 100 µM; TGI [41]: 73.7 µM and > 100 µM; TGI [42]: > 100 µM; GI50 [45]: 37.8 µM; TGI [45]: > 72 µM and 64.2 µM; GI50 [46]: 39.4 µM; TGI [46]: > 100 µM; TGI [47]: > 100 µM; TGI [70]: > 100 µM; GI50 [48]: 19.4 µM and > 100 µM; TGI [48]: 50.8 µM and > 100 µM; TGI [49]: > 75 µM; GI50 [50]: 18.1 µM and 51.1 µM; TGI [50]: 45.4 µM and > 100 µM; TGI [51]: 55.7 µM and 62.5 µM; TGI [52]: 52.6 µM; TGI [53]: > 100 µM; TGI [54]: > 100 µM; TGI [71]: > 100 µM; TGI [72]: > 100 µM; GI50 [55]: 28.3 µM and > 100 µM; TGI [55]: > 100 µM
